Experimental data as given in patent publication EP0096116B1, “Thiophene derivative having a mucoregulating and anticough activity, process for its preparation and pharmaceutical compositions containing it” (AUSONIA FARMACEUTICI S.r.l., priority 1982, dated 1983).

Experiments:
[1] = Solubility of the isolated compound; type: physicochemical
Excerpt: 73 Grams of an oil, impossible to crystallize but perfectly pure in TLC, are obtained.

male Wistar rats = experiment: Bronchosecretogogue activity (Mawatari technique); type: in vivo, rat; conditions: 500 mg/kg/os, FlNa = Sodium fluoresceine
Excerpt: The broncosecretogogue activity has been determined in male Wistar rats by per os administration according to the method of Mawatari [Mawatari H., Kagoshima Daigaku, Igaku-Zasshi, 27, 561 (1976)], comparing I with carboxymethylcysteine, sobrerol and guaiphenesin at the doses hereinafter stated.

[2] = Acute toxicity (method of Litchfield and Wilcoxon), mouse; conditions: Swiss, in vivo
Excerpt: (§1) The acute toxicity has been determined in Swiss mouses and in Wistar rats for different administration routes, according to the method of Litchfield J. T. and Wilcoxon [J. Pharm. Exp. Therap. 96,99-113 (1949)].

[3] = Acute toxicity (method of Litchfield and Wilcoxon), rat; conditions: Wistar, in vivo
Excerpt: as §1

[4] = system: tracheo-bronchial mucus from rabbits; experiment: Fluidifying activity in vivo, microviscosimeter on tracheo-bronchial mucus; conditions: 500 mg/kg/os, rabbit
Excerpt: The fluidifying effect has been determined with the microviscosimeter on the tracheo-bronchial mucus from rabbits after administration by oral route, comparing I with sobrerol, at the doses hereinafter stated.

[5] = Pharmacokinetic tests after oral administration; type: in vivo; conditions: oral administration of I and sobrerol in equimolar doses, in the animal

| Compound | solubility in the common organic solvents ([1]; common organic solvents) | solubility in water ([1]; water) | % Increase of FlNa in comparison with controls (male Wistar rats) [%] | LD50 ([2]; ip) [mg/kg] | LD50 ([2]; oral, os) [mg/kg] | LD50 ([3]; ip) [mg/kg] | LD50 ([3]; oral, os) [mg/kg] | % Reduction of the mucus viscosity [4] [%] | sobrerol concentrations at pulmonary level [5] |
| --- | --- | --- | --- | --- | --- | --- | --- | --- | --- |
| CC1=CCC(C(C)(C)O)CC1OC(=O)c1cccs1 (centres unmarked) [Compound I, thiophen-2-carboxylate of 2-methyl-5-(1-hydroxy-1-methylethyl)-cyclohexen-2-yl] | soluble in the common organic solvents | almost insoluble in water | 76.4 | 2500 | > 4000 | 2650 | > 4000 | 39.8 | higher sobrerol concentrations at pulmonary level |
| CC1=CCC(C(C)(C)O)CC1O (centres unmarked) [Sobrerol, 2-methyl-5-(1-hydroxy-1-methyl-ethyl)-2-cyclohexen-1-ol, reference compound] | – | – | 33.4 | – | – | – | – | 15.6 | – |
